# Measurements as given in publication PMC7016291 (Acta Pharmaceutica Sinica. B, 2019).
# Experiments:
# HIV-1 RT RNase H = HIV-1 RT RNase H (Human immunodeficiency virus type 1 group M subtype B, UniProt P03366); experiment: HIV-1 RT RNase H inhibition; format: biochemical
# [1] = Cytotoxicity in uninfected MT-4 cells; format: cell-based; settings: human, uninfected MT-4 cells
# WT HIV-1 RT = WT HIV-1 RT (Human immunodeficiency virus type 1 group M subtype B, UniProt P03366); experiment: HIV-1 RT inhibition assay; format: biochemical
# HIV-2 (ROD) = experiment: Anti-HIV activity in MT-4 cells; format: cell-based; settings: Human immunodeficiency virus 2, MT4, read-out: EC50 ROD
SMILES,IC50 (HIV-1 RT RNase H) [µM],CC50 at 4 days [1] [µM],IC50 (WT HIV-1 RT) [µM],EC50 (HIV-2 (ROD)) [µM],activity against RNase H (HIV-1 RT RNase H)
"Cc1cc(-c2ccc(C#N)cc2)cc(C)c1Oc1nc(Nc2ccc(C#N)cc2)nc(NC2CCOCC2)n1 [Compound 5b, 4ʹ-((4-((4-Cyanophenyl)amino)-6-((tetrahydro-2H-pyran-4-yl)amino)-1,3,5-triazin-2-yl)oxy)-3ʹ,5ʹ-dimethyl-[1,1ʹ-biphenyl]-4-carbonitrile]",> 1160,> 125,0.263,2.03 ± 0.94,
"Cc1cc(-c2ccc(C#N)cc2)cc(C)c1Oc1nc(NCC2CCOC2)nc(Nc2ccc(C#N)cc2)n1 (centres unmarked) [Compound 5c, 4ʹ-((4-((4-Cyanophenyl)amino)-6-(((tetrahydrofuran-3-yl)methyl)amino)-1,3,5-triazin-2-yl)oxy)-3ʹ,5ʹ-dimethyl-[1,1ʹ-biphenyl]-4-carbonitrile]",> 1160,> 125,0.216,1.01 ± 0.21,
"COC(=O)[C@@H]1CCCN1c1nc(Nc2ccc(C#N)cc2)nc(Oc2c(C)cc(-c3ccc(C#N)cc3)cc2C)n1 [Compound 5d, Methyl (4-((4ʹ-cyano-3,5-dimethyl-[1,1ʹ-biphenyl]-4-yl)oxy)-6-((4-cyanophenyl)-amino)-1,3,5-triazin-2-yl)-L-prolinate]",> 1100,2.23 ± 1.09,0.273,> 2.23,
"Cc1cc(-c2ccc(C#N)cc2)cc(C)c1Oc1nc(Nc2ccc(C#N)cc2)nc(N2CCOCC2)n1 [Compound 5e, 4ʹ-((4-((4-Cyanophenyl)amino)-6-morpholino-1,3,5-triazin-2-yl)oxy)-3ʹ,5ʹ-dimeth-yl-[1,1ʹ-biphenyl]-4-carbonitrile]",659,> 125,0.195,3.61 ± 0.55,slight activity
"Cc1cc(-c2ccc(C#N)cc2)cc(C)c1Oc1nc(Nc2ccc(C#N)cc2)nc(N2CCNCC2)n1 [Compound 5f, 4ʹ-((4-((4-Cyanophenyl)amino)-6-(piperazin-1-yl)-1,3,5-triazin-2-yl)oxy)-3ʹ,5ʹ-dimethyl-[1,1ʹ-biphenyl]-4-carbonitrile]",> 1190,9.8 ± 7.31,0.482,> 9.8,
"Cc1cc(-c2ccc(C#N)cc2)cc(C)c1Oc1nc(Nc2ccc(C#N)cc2)nc(N2CCCC2CO)n1 (centres unmarked) [Compound 5g, 4ʹ-((4-((4-Cyanophenyl)amino)-6-(2-(hydroxymethyl)pyrrolidin-1-yl)-1,3,5-triazin-2-yl)oxy)-3ʹ,5ʹ-dimethyl-[1,1ʹ-biphenyl]-4-carbonitrile]",> 1160,> 125,0.28,1.56 ± 0.49,
"Cc1cc(-c2ccc(C#N)cc2)cc(C)c1Oc1nc(Nc2ccc(C#N)cc2)nc(N2CCC(O)CC2)n1 [Compound 5i, 4ʹ-((4-((4-Cyanophenyl)amino)-6-(4-hydroxypiperidin-1-yl)-1,3,5-triazin-2-yl)-oxy)-3ʹ,5ʹ-dimethyl-[1,1ʹ-biphenyl]-4-carbonitrile]",500,14.9 ± 7.89,0.282,1.51 ± 0.26,slight activity
"Cc1cc(-c2ccc(C#N)cc2)cc(C)c1Oc1nc(NCCN2CCN(C)CC2)nc(Nc2ccc(C#N)cc2)n1 [Compound 5k, 4ʹ-((4-((4-Cyanophenyl)amino)-6-((2-(4-methylpiperazin-1-yl)ethyl)amino)-1,3,5-triazin-2-yl)oxy)-3ʹ,5ʹ-dimethyl-[1,1ʹ-biphenyl]-4-carbonitrile]",> 1070,14.1 ± 3.47,0.658,> 14.1,
"Cc1cc(-c2ccc(C#N)cc2)cc(C)c1Nc1nc(Nc2ccc(C#N)cc2)nc(NC2CC2)n1 [Compound 6a, 4ʹ-((4-((4-Cyanophenyl)amino)-6-(cyclopropylamino)-1,3,5-triazin-2-yl)amino)-3ʹ,5ʹ-dimethyl-[1,1ʹ-biphenyl]-4-carbonitrile]",> 1270,> 125,0.0741,26.5,
